Test system: VEGF expression in CT-26 colon adenocarcinoma cells
Test: VEGF silencing in vitro, mouse VEGF ELISA of cell supernatants
Assay type: cell-based
Details: bPEI carrier; N/P ratio of 10; CT-26 cells; 0.7 μg siRNA/well
Experimental: To evaluate the biological significance of these systems, the inhibitory activity of siRNA against the expression of VEGF in CT-26 colon adenocarcinoma cells was investigated.
CT-26 cells were seeded in 24-well tissue culture plates at 8×10^4 cells per well in 10% FBS containing RPMI 1640 medium. Cells achieved 80% confluency within 24 h, after which they were transfected with cationic substance/siRNA complexes prepared at N/P ratios ranging from 5 to 40. The total amount of siRNA loaded was maintained constant at 0.7 μg/well. The transfection was carried out in the absence of serum. The cells were allowed to incubate at 37° C. in the presence of complexes for 4 h in a CO2 incubator, followed by replacement of 1 ml of RPMI 1640 containing 10% FBS. Thereafter, the cells were incubated at 37° C. for an additional 24 h. […]
The amount of mouse VEGF produced in medium was determined using a mouse VEGF ELISA kit (R&D Systems Inc., Minneapolis, Minn.) according to the recommendation of the manufacturer. […] The enzymatic reaction was stopped by adding 100 μl of stop solution to the wells, and absorbance was determined by spectrophotometry at 450 nm. The VEGF concentration in the cell supernatant samples was calculated based on the standard curve.
The inhibitory effect was evaluated from the relative silencing of the VEGF assayed by ELISA.

## scVEGF: scrambled VEGF siRNA, SEQ ID NO:3 and SEQ ID NO:4; in b74 tested as complex with bPEI (chain 1 GAUAGCAAUGACGAAUGCGUATT; chain 2 UACGCAUUCGUCAUUGCUAUCTT; chemistry not given here)
  silencing of VEGF expression (ELISA): no effect

— patent US8058256B2, “Polymeric carrier for delivery of small interfering RNA” (University of Utah Research Foundation, priority 2006, dated 2011)
